The source of these data is US12472226B2, “Cell-permeable peptide” (priority 2019, dated 2025).

The test system of test [1] is HT-1080 cells. As to the kind of experiment: Test of inducing cell-death in vitro (Calcein-AM/PI dead cell rate). The test is classed as cell-based, human. As to conditions: for increase in the dead cell rate: day 21. The source says: (§1) Human fibrosarcoma-derived HT-1080 cells (HT-1080 cells, JCRB cell bank) were used as cancer cells in the test for monitoring changes in mitochondrial membrane potential. HT-1080 cells, human osteosarcoma cell line Hos cells (Hos cells, JCRB cell bank), human histiocytic lymphoma/macrophage U937 cells (U937 cells, JCRB cell bank), human myeloid leukemia HL-60 cells (HL-60 cells, JCRB cell bank), acute monocytic leukemia THP-1 cells (THP-1 cells, JCRB cell bank), human alveolar basal epithelial adenocarcinoma cell A549 cells (A549 cells, Cell Resource Center for Biomedical Research, Institute of Development, Aging and Cancer, Tohoku University), human pancreatic carcinoma cells (MIA Paca 2 cells, Cell Resource Center for Biomedical Research, Institute of Development, Aging and Cancer, Tohoku University) and well differentiated human liver carcinoma-derived cell line HuH7 cells (HuH7 cells, Cell Resource Center for Biomedical Research, Institute of Development, Aging and Cancer, Tohoku University) were used as cancer cells in an in vitro cell-death induction test of cancer cells and a nuclear transport test of Example 2. Normal human gingival fibroblast cells Gin-1 (Gin-1 cells, DS Pharma Biomedical) were used as a control. The above-described cells were each inoculated into a 96-well culture plate (Falcon) at 5,000 cells/[…] and subjected to the following tests.
The peptide of SEQ ID NO: 1 labeled with FITC (Example 2) was used for the test of inducing cell-death in vitro in cancer cells. It was prepared the test example to which 100 μL of Example 2 and further 10% FBS were added and cultured for 9 days under conditions of 200 μL of serum-supplemented medium (Alpha modification of Eagle's MEM (α-MEM) (Thermo Fisher Scientific)+10% FBS). Furthermore, it was also produced the test example that was cultured for 21 days with the whole amount of Example 2-supplemented medium replaced every 7 days. As a control, the cells were cultured in a serum-supplemented medium (α-MEM+10% FBS) without addition and were used. A supernatant was removed after the completion of the culture. The cells were washed once with PBS and stained in PBS to which a fluorescent dye for living cell staining Calcein-AM (DOJINDO LABORATORIES) (final concentration: 0.1 μg/mL) and a fluorescent dye for dead cell staining Propidium Iodide (PI) (DOJINDO LABORATORIES) (final concentration: 0.3 μg/mL) were added, at 37° C. in a 5% CO2 cell incubator for 30 minutes. The living cells and dead cells were separately stained with Calcein-AM and PI, respectively and imaged with the confocal laser scanning microscope LSM800. Next, the dead cell rate relative to the number of total cells was analyzed using ImageJ.
The results are represented by the average value of the dead cell rate (the number red cells stained with IP/the number of total cells×100(%))±standard deviation (SD). In FIG. 2A, the vertical axis represents the rate of cell death when each cell was cultured with Example 2 (50 μg/mL) for 9 days and the horizontal axis represents various types of cells. The increase in the dead cell rate of the Gin-1 cells was not observed.
The concentrations of Examples 2 and 4 to 6 were adjusted to 12.5, 25, 50 and 100 μg/mL, respectively and then administrated to the HT-1080 cells for 9 days tested by the same method as in Test Example 2A. The cell staining and subsequent analyses of the dead cell rate relative to the number of total cells were performed in the same manner as Test Example 2A.

Test [2] has as its target T1, CD13 (Homo sapiens, UniProt P15144).
T1 construct: endogenous in cells; host or cells: HT-1080 cells
Description: Analytical test of binding protein by immunoprecipitation. The conditions noted are these: HT-1080 cells, 80 μg/400 μL, 4° C., 2 hours. The procedure:
Example 2 (80 μg/400 μL) reacted to HT-1080 cells (40 million cells) at 4° C. for 2 hours. The cells were then washed with PBS, and centrifuged. The centrifuged cells were dissolved in 1,000 μL of IP Lysis/Wash buffer (Thermo Fisher Scientific) with Halt Protease & Phosphatase inhibitor Single-Use Cocktail, ETDA-Free (Thermo Fisher Scientific) (10 μL) at 4° C. for 5 minutes. It was centrifuged at 4° C. for 10 minutes and the supernatant was collected. The supernatant was adjusted to be 1 mg in amount of protein and 80 μL of A/G agarose was added to it. The mixture was stirred at 4° C. for 1 hour and then centrifuged for 1 minute. Thus, a pre-treatment solution was obtained. 10 μg of IgG Fraction Monoclonal Mouse Anti-Fluorescein (FITC) (Jackson ImmunoResearch) or 10 μg of Mouse IgG Isotype Control (Thermo Fisher Scientific) was each added to the pre-treatment solution (1 mg/600 μL), and the mixtures were shaken at 4° C. overnight. Subsequently, 20 μL of A/G agarose was added and the mixtures were shaken at 4° C. for 2 hours. The mixtures were washed three times with the wash buffer described above and 20 μL of 2×Non-reducing Lane Marker Sample Buffer (Thermo Fisher Scientific) was added to the A/G agaroses. […]
The 10% solution used in immunoprecipitation was loaded to the left lane of FIG. 3. […] CD13 was not detected on the right lane, but CD 13 was detected on the center lane.

Test [3] has as its system HT-1080 cells. Description: Test on nuclear transport (confocal, DAPI). The test is classed as cell-based, human. The conditions noted are these: 50 μg/mL; for intracellular localization: HT-1080 cells.
Source text: as §1
The cells were cultured in 200 μL of serum-supplemented medium (α-MEM+10% FBS) to be 50 μg/mL at the final concentration of Example 2 for 3 or 9 days. The cell-death was not detected in the culture on day 3. On the contrary, since the cell-death was detected in the culture on day 9, the day 9 culture as described above was used for the tests. The above each cell was separated and transferred to a Cellview glass bottom dish (35×10 mm) (Greiner). The cells on day 3 were fixed with 10% formalin-ethanol and then dyed with DAPI. The cells on day 9 were dyed with DAPI without fixation.
FIG. 4 is the photographs of Example 2 (green), DAPI (blue), overlay images of Example 2 (green) and DAPI (blue) and differential interference image on the HT-1080 cells on day 3 or 9.

Non-standard residues stand in square brackets, D forms with d. No end group written: not given here. *: point of attachment. FITC = O=C1OC2(c3ccc(O)cc3Oc3cc(O)ccc32)c2ccc(NC(=S)*)cc21; Ahx = NCCCCCC(=O)O

T1 sequence (P15144 whole entry): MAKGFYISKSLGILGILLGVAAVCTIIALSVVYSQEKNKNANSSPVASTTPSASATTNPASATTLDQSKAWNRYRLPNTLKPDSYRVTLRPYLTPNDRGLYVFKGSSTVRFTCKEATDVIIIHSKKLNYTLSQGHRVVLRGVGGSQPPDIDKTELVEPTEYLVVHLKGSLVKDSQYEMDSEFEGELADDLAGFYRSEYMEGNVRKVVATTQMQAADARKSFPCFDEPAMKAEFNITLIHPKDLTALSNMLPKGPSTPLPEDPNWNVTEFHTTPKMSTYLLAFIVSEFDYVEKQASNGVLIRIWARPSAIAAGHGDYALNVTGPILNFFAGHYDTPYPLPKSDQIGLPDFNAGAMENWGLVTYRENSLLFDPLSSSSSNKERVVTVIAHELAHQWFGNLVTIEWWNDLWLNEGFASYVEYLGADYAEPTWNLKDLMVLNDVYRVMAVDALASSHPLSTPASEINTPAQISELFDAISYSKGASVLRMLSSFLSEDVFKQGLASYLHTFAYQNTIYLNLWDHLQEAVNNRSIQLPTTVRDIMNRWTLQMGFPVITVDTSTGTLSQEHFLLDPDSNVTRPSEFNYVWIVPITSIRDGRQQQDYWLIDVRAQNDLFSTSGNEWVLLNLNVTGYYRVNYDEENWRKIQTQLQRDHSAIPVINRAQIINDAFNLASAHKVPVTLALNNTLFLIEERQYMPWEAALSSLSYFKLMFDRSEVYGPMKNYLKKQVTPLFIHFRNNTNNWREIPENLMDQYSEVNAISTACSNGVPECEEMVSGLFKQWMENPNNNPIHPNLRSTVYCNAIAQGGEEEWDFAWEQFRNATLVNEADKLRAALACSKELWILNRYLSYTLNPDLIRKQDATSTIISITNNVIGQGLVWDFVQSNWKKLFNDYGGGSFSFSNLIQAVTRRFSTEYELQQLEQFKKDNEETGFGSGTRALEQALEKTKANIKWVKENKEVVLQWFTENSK

Take “Example 2: peptide of SEQ ID NO: 1 labeled with FITC, bound via an Ahx linker at the N-terminus ({FITC}-[Ahx]KDNRGNLLQCVCTGNGRGEWKC; cysteine pairing not given here)”: the “increase in the dead cell rate” value in test [1] (6.25 μg/mL) is reported as at least 75%; in test [1] (12.5 μg/mL) it was at least 75%; in test [1] (25 μg/mL), at least 95%; in test [1] (50 μg/mL) it was at least 95%; in test [1] (100 μg/mL), at least 95%. In addition, the “increase in the dead cell rate vs control” value in test [1] (50 μg/mL, 9 days) is “significant difference at the level of 1%”. For the same substance, the “binding to CD13 (co-immunoprecipitation with anti-FITC, Western blotting)” value in test [2] was “proved to bind to CD13 on a cell membrane specifically”. Besides, the entries for the “cell-death in the culture” value in test [3] (day 3) and in test [3] (day 9) were “not detected” and “detected”, respectively. The intracellular localization result is “present at a cytoplasm” in test [3] (day 3); “transferred to a nucleus and bound to a chromosome DNA” in test [3] (day 9).
